According to patent US8809341B2, “2,4-pyrimidinediamine compounds and uses as anti-proliferative agents” (Rigel Pharmaceuticals, Inc., priority 2003, dated 2014):
Like-named read-outs stand apart in the source and are kept apart here.

Columns and labels:
Format in all cases: cell-based
A549 cells = assay: in vitro antiproliferation assay, A549 (lung)
How it was run: (§1)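 IC50 values came from standard antiproliferation testing in cultured tumour cells; the A549 and H1299 lines are of lung origin.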

H1299 cells = assay: in vitro antiproliferation assay, H1299 (lung)
How it was run: as §1

ACHN = assay: in vitro antiproliferation assay, ACHN (kidney/p53 wt)
Description: (§2) The IC50 values of various compounds against a various different tumor cell lines were determined using standard in vitro antiproliferation assays. The tumor cell lines tested were as follows: A549 (lung); H1299 (lung), ACHN (kidney/p53 wt), CAKI (renal cell carcinoma), NCI-H460 (lung); HCT116 (colon/p53w0; HELA (cervix/p53 wt), HUH7 (liver/p53 wt), HUVEC (primary endothelial), LNCAP (prostate), HT-29 (colon); MCF-7 (breast); MCF-7 (breast/ER positive), MDA MB435S (breast); MDA MB231 (breast/ER negative), DU145 (prostate); BxPC-3 (pancreatic); SKOV-3 (ovarian); HepG2 (hepatic), NDHF primary normal human dermal fibroblast), SKMEL28 (breast/p53mut), SKMEL5 (breast/p53 wt), U20S (bone) and PC3 (prostate). […] A blank indicates the specified compound was not tested against the specified cell line.
(§3) Many of the compounds were tested against other cell lines. Their activity is reported in TABLE 15, below, where +”, “−”, “−/+” or “+/−” values are as described for TABLES 1-14. Where the cell line includes a value in a parenthetical, the value indicates the seeding density at which the assay was performed

CAKI = assay: in vitro antiproliferation assay, CAKI (renal cell carcinoma)
Description: as §2, §3

HCT116 = assay: in vitro antiproliferation assay, HCT116 (colon)
Description: as §2, §3

SKMEL28 = assay: in vitro antiproliferation assay, SKMEL28 (breast/p53mut)
Description: as §2, §3

SKMEL5 = assay: in vitro antiproliferation assay, SKMEL5
Description: as §2, §3

HELA = assay: in vitro antiproliferation assay, HELA (cervix/p53 wt)
Description: as §2, §3

MCF-7 = assay: in vitro antiproliferation assay, MCF-7 (breast/ER positive)
Description: as §2, §3

MDA MB231 = assay: in vitro antiproliferation assay, MDA MB231 (breast/ER negative)
Description: as §2, §3

HUH7 = assay: in vitro antiproliferation assay, HUH7 (liver/p53 wt)
Description: as §2, §3

PC3 = assay: in vitro antiproliferation assay, PC3 (prostate)
Description: as §2, §3

HUVEC = assay: in vitro antiproliferation assay, HUVEC (primary endothelial)
Description: as §2, §3

LNCAP = assay: in vitro antiproliferation assay, LNCAP (prostate)
Description: as §2, §3

NDHF = assay: in vitro antiproliferation assay, NDHF (primary normal human dermal fibroblast)
Description: as §2, §3

U20S = assay: in vitro antiproliferation assay, U20S (bone)
Description: as §2, §3

[1] = IC50 class against A549 (lung) tumor cells
[2] = IC50 class against H1299 (lung) tumor cells
[3] = HCT116 (colon), read-out: HCT116
[4] = Table 5, in vitro antiproliferation, A549 (lung) cells
[5] = Table 7, in vitro antiproliferation, A549 (lung) cells
[6] = Table 7, in vitro antiproliferation, colon cells, read-out: HTC116
[7] = A549 (lung) cells, in vitro antiproliferation
[8] = H1299 (lung) cells, in vitro antiproliferation

SMILES | IC50 (ACHN) | IC50 (CAKI) | IC50 (HCT116; [3]) | IC50 (SKMEL28) | IC50 (SKMEL5) | IC50 (A549 cells; [7]) | IC50 (H1299 cells; [8]) | also measured
Fc1cnc(Nc2ccc(N3CCOCC3)cc2)nc1NC1CC1 [compound 101] | ≤ 20 µM | ≤ 20 µM | ≤ 20 µM | ≤ 20 µM | ≤ 20 µM | – | – | IC50 (A549 cells; [1]): ≤ 20 µM; IC50 (H1299 cells; [2]): ≤ 20 µM
O=C(COc1cccc(Nc2ncc(F)c(NC3CC3)n2)c1)NC1CC1 [compound 102] | ≤ 20 µM | ≤ 20 µM | ≤ 20 µM | ≤ 20 µM | ≤ 20 µM | – | – | IC50 (A549 cells; [1]): ≤ 20 µM; IC50 (H1299 cells; [2]): ≤ 20 µM
O=C(COc1cccc(Nc2ncc(F)c(NC3CC3)n2)c1)NC1CCC1 [compound 103] | ≤ 20 µM | ≤ 20 µM | ≤ 20 µM | ≤ 20 µM | ≤ 20 µM | – | – | IC50 (A549 cells; [1]): ≤ 20 µM; IC50 (H1299 cells; [2]): ≤ 20 µM
CNC(=O)COc1cccc(Nc2ncc(F)c(NC3CC3)n2)c1 [compound 106] | ≤ 20 µM | ≤ 20 µM | ≤ 20 µM | ≤ 20 µM | ≤ 20 µM | – | – | IC50 (A549 cells; [1]): ≤ 20 µM; IC50 (H1299 cells; [2]): ≤ 20 µM
CN1CCN(c2ccc(Nc3ncc(F)c(N(C)C4CCC4)n3)cc2)CC1 [compound 125] | – | – | ≤ 20 µM | – | – | – | – | IC50 (A549 cells; [1]): ≤ 20 µM; IC50 (H1299 cells; [2]): ≤ 20 µM; IC50 (HELA): ≤ 20 µM; IC50 (MCF-7; MCF7, seeding density 2K, read-out: MCF7(2K)): ≤ 20 µM; IC50 (MCF-7; MCF7, seeding density 4K, read-out: MCF7(4K)): ≤ 20 µM; IC50 (MDA MB231; MDA-MB-231, seeding density 2K, read-out: MDA-MB-231(2K)): ≤ 20 µM; IC50 (MDA MB231; MDA-MB-231, seeding density 4K, read-out: MDA-MB-231(4K)): ≤ 20 µM
CNC(=O)COc1cccc(Nc2ncc(F)c(Nc3ccc4c(c3)NC(=O)C(C)(C)O4)n2)c1 [compound 355] | – | – | > 20 µM | – | – | – | – | IC50 (HUH7): ≤ 20 µM; IC50 (PC3): ≤ 20 µM
COc1c(C)cc(Nc2ncc(F)c(Nc3ccc4c(c3)NC(=O)C(C)(C)O4)n2)cc1Cl [compound 359] | – | – | > 20 µM | – | – | – | – | IC50 (HUH7): ≤ 20 µM
CNC(=O)COc1cccc(Nc2ncc(F)c(Nc3ccc4c(c3)OC(F)(F)C(F)(F)O4)n2)c1 [compound 503] | – | – | ≤ 20 µM | – | – | – | – | IC50 (A549 cells; [4]): < 20 µM; IC50 (PC3): > 20 µM
Cc1cc(Nc2ncc(F)c(Nc3ccc4c(c3)OCCO4)n2)cc(C(F)(F)F)c1 [compound 523] | ≤ 20 µM | – | > 20 µM | ≤ 20 µM | ≤ 20 µM | – | – | IC50 (A549 cells; [4]): > 20 µM; IC50 (H1299 cells; Table 5, in vitro antiproliferation, H1299 (lung) cells): ≤ 20 µM; IC50 (HELA): ≤ 20 µM; IC50 (HUH7): ≤ 20 µM; IC50 (HUVEC): ≤ 20 µM; IC50 (LNCAP): ≤ 20 µM; IC50 (NDHF): ≤ 20 µM; IC50 (U20S): ≤ 20 µM
O=C(c1cc2cc(Nc3ncc(F)c(Nc4ccc5c(c4)OCCO5)n3)ccc2o1)N1CCCNCC1 [compound 644] | – | – | ≤ 20 µM | – | – | – | – | IC50 (A549 cells; [5]): ≤ 20 µM; IC50 (HCT116; [6]): ≤ 20 µM; IC50 (PC3): > 20 µM
CNC(=O)c1cc2cccc(Nc3ncc(F)c(Nc4ccc5c(c4)OCCO5)n3)c2[nH]1 [compound 649] | – | – | > 20 µM | – | – | – | – | IC50 (A549 cells; [5]): ≤ 20 µM; IC50 (HCT116; [6]): ≤ 20 µM; IC50 (HELA): ≤ 20 µM; IC50 (HUH7): ≤ 20 µM; IC50 (HUVEC): ≤ 20 µM; IC50 (LNCAP): ≤ 20 µM; IC50 (NDHF): ≤ 20 µM; IC50 (U20S): ≤ 20 µM
CNC(=O)c1cc2cccc(Nc3ncc(F)c(Nc4cc(OC)cc(OC)c4)n3)c2[nH]1 [compound 654] | ≤ 20 µM | ≤ 20 µM | – | ≤ 20 µM | ≤ 20 µM | – | – | IC50 (A549 cells; [5]): ≤ 20 µM; IC50 (H1299 cells; Table 7, in vitro antiproliferation, H1299 (lung) cells): ≤ 20 µM
CCOC(=O)COc1cccc(Nc2nc(Nc3cccc(O)c3)ncc2F)c1 [compound 763] | – | – | – | – | – | > 20 µM | ≤ 20 µM | IC50 (PC3): > 20 µM
CCOC(=O)COc1cccc(Nc2ncc(F)c(Nc3cc(OC)cc(OC)c3)n2)c1 [compound 766] | – | – | – | – | – | > 20 µM | ≤ 20 µM | IC50 (PC3): > 20 µM
COc1cc(Nc2ncc(F)c(Nc3ccc(Cl)c(Cl)c3)n2)cc(OC)c1 [compound 835] | – | – | ≤ 20 µM | – | – | ≤ 20 µM | ≤ 20 µM | IC50 (HUVEC): ≤ 20 µM; IC50 (U20S): ≤ 20 µM
Cc1cc(C)cc(Nc2ncc(F)c(Nc3ccc(Cl)c(Cl)c3)n2)c1 [compound 838] | – | – | – | – | – | ≤ 20 µM | > 20 µM | IC50 (HUVEC): > 20 µM
COc1cc(Nc2nc(Nc3cc(C)cc(C)c3)ncc2F)cc(OC)c1 [compound 846] | ≤ 20 µM | ≤ 20 µM | ≤ 20 µM | ≤ 20 µM | ≤ 20 µM | ≤ 20 µM | ≤ 20 µM | IC50 (HUVEC): ≤ 20 µM
COc1cc(OC)cc(N(C)c2nc(Nc3cc(C)cc(C)c3)ncc2F)c1 [compound 851] | – | – | ≤ 20 µM | – | – | ≤ 20 µM | ≤ 20 µM | IC50 (HELA): ≤ 20 µM; IC50 (U20S): ≤ 20 µM
